Data published in patent US4895841A (priority 1987, dated 1990).
Structures can show the parent of a compound that is named as a salt.

What follows are compounds tested against T1, acetylcholinesterase (Mus musculus, UniProt P21836) (assay: biochemical). Conditions: not given.
T1 construct: A mouse brain homogenate was used as an acetylcholinesterase source; from tissue; host or cells: mouse brain homogenate
T1 sequence (P21836 32-614): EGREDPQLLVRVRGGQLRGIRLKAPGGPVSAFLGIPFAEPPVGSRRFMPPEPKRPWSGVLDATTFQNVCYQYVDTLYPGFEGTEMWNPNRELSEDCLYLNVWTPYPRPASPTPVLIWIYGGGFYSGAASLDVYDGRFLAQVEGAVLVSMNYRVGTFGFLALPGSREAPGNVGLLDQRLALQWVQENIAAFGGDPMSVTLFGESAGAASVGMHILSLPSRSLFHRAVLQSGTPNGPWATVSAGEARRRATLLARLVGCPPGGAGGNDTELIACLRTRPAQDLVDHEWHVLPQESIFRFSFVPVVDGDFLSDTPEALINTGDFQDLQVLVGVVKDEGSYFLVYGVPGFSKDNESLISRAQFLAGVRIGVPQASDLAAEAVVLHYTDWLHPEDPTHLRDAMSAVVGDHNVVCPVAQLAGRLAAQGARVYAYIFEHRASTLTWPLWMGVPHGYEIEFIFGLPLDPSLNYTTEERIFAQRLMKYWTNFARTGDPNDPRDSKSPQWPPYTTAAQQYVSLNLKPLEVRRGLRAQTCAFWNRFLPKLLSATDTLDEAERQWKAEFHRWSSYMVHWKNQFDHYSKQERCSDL
Format: biochemical
In the case of `COc1cc2c(cc1OC)C(=O)C(CC1CC[N+]([O-])(Cc3ccccc3)CC1)C2` (stereo not drawn) [Example 226], the IC50 is reported as 4.9 nM. `COc1cc2c(cc1OC)C(=O)C(CC1CCN(Cc3cccc(OCc4ccccc4)c3)CC1)C2` (stereo not drawn) [Example 237] gave an IC50 of 2600 nM. For `Cc1ccc2c(c1)C(=O)C(CC1CCN(Cc3ccccc3)CC1)C2` (stereo not drawn) [Example 194], the IC50 was 69 nM. `CCOc1cc2c(cc1OCC)C(=O)C(=CC1CCN(Cc3ccccc3)CC1)C2` [Example 216] showed an IC50 of 17 nM. Compound `COc1ccc(CN2CCC(CC3Cc4cc(OC)c(OC)cc4C3=O)CC2)cc1` (stereo not drawn) [Example 236] has an IC50 of 3600 nM. Work on `O=C(CCCC1CCN(Cc2ccccc2)CC1)c1ccncc1` [Example 45] yielded an IC50 of 360 nM. `COc1cc2c(cc1OC)C(=O)C(=CCCC1CCN(Cc3ccccc3)CC1)C2` [Example 186, 1-Benzyl-4-[3-[(5,6-dimethoxy-1-indanon)-2-ylidenyl]]propylpiperidine hydrochloride] gave an IC50 of 1.5 nM. Compound `COc1ccc2c(c1)CCCC(=O)N2CCC1CCN(Cc2ccccc2)CC1` [Example 62] has an IC50 of 7.5 nM. `O=C(NCCC1CCN(Cc2ccco2)CC1)c1ccccc1` [Example 124] was tested, and the IC50 was 2800 nM. In the case of `CC(=O)N(CCC1CCN(Cc2ccccc2)CC1)c1ccncc1` [Example 101], the IC50 is reported as 110 nM. With `CCOC(=O)N1CCC(CC2=Cc3cc(OC)c(OC)cc3C2=O)CC1` [Example 183, 4-[(5,6-Dimethoxy-1-indenon)-2-yl]methyl-1-ethoxycarbonylpiperidine] the IC50 was 5300 nM. `O=C(NCCC1CCN(Cc2ccccc2)CC1)c1ccoc1` [Example 24, N-[4'-(1'-Benzylpiperidine)ethyl]-3-furancarboxylic amide hydrochloride] showed an IC50 of 1100 nM. Work on `COc1cc2c(cc1OC)C(=O)N(CCC1CCN(Cc3ccccc3)CC1)C2` [Example 6, 2-[4'-Benzylpiperidine)ethyl]-2,3-dihydro-5,6-dimethoxyoxypyrrolo[3,4-]benzene hydrochloride] yielded an IC50 of 17 nM. `O=C1C(=CC2CCN(Cc3ccccc3)CC2)Cc2cc3c(cc21)OCO3` [Example 217] showed an IC50 of 140 nM. In the case of `COc1cc2c(cc1OC(C)C)CC(=CC1CCN(Cc3ccccc3)CC1)C2=O` [Example 221], the IC50 is reported as 33 nM. For `COc1cc2c(cc1OC)C(=O)C(CC1CCN(Cc3cccc(O)c3)CC1)C2` (stereo not drawn) [Example 233], the IC50 was 46 nM. With `COc1cc2c(cc1OC)C(=O)C(CC1CCN(Cc3cc(OC)c(OC)c(OC)c3)CC1)C2` (stereo not drawn) [Example 244] the IC50 was 4900 nM. `Cc1ccc2c(c1)C(=O)C(=CC1CCN(Cc3ccccc3)CC1)C2` [Example 212] was tested, and the IC50 was 500 nM. `COc1cc2c(cc1OC)C(=O)N(C)C(CCC1CCN(Cc3ccccc3)CC1)C2` (stereo not drawn) [Example 67] gave an IC50 of 100 nM. `COc1cc2c(cc1OC)C(=O)C(NC1CCN(Cc3ccccc3)CC1)C2` (stereo not drawn) [Example 248] showed an IC50 of 1400 nM. `CN(CCC1CCN(Cc2ccccc2)CC1)C(=O)c1ccco1` [Example 120] showed an IC50 of 190 nM. With `COc1cc2c(cc1OC)C(=O)C(CC1CCN(Cc3ccc4ccccc4c3)CC1)C2` (stereo not drawn) [Example 242] the IC50 was 2900 nM.

Same assay, conditions: read-out: AChE inhibitory activity IC50
In the case of `COc1cc2c(c(OC)c1)C(=O)C(CC1CCN(Cc3ccccc3)CC1)C2` (stereo not drawn) [Example 31], the IC50 is reported as 25 nM. `O=C1c2ccccc2CCc2ccccc2N1CCC1CCN(Cc2ccccc2)CC1` [Example 11, N-[4-(1'-Benzylpiperidyl)ethyl]-5,6,11,12-tetrahydrodibenzo[b,f]azocin-6-one hydrochloride] gave an IC50 of 68 nM. For `CN(CCC1CCN(CC2CCCCC2)CC1)C(=O)c1ccccc1` [Example 27, N-[4'-(1'-Cyclohexylmethylpiperidyl)ethyl]-N-methylbenzamide hydrochloride], the IC50 was 410 nM. With `O=C1Cc2ccccc2CN1CCC1CCN(Cc2ccccc2)CC1` [Example 56] the IC50 was 17 nM.

Same assay, conditions: read-out: Inhibitory activity on AChE IC50
In the case of `COc1cc2c(cc1OC)C(=O)C(CCCCCC1CCN(Cc3ccccc3)CC1)C2` (stereo not drawn) [Example 205], the IC50 is reported as 14 nM. Work on `COc1cccc2c1CC(CC1CCN(Cc3ccccc3)CC1)C2=O` (stereo not drawn) [Example 189] yielded an IC50 of 12 nM. With `COc1cc2c(cc1OC)C(=O)C(CN1CCC(Cc3ccccc3)CC1)C2` (stereo not drawn) [Example 225] the IC50 was 480 nM. In the case of `COc1ccc2c(c1)C(=O)C(CC1CCN(Cc3ccccc3)CC1)C2` (stereo not drawn) [Example 188], the IC50 is reported as 81 nM.
